Test results as given in ChEMBL document CHEMBL6078673, “Synthesis and anti-tumor activity of menthylamine derivatives: Focusing on the potent inhibitory effect of compound W8 on glioma growth” (Bioorg Med Chem, 2025).
≈ marks a conversion by molar mass, not a printed value. Calls of active or inactive are those of the source. The calls are words filed in the database; no cut-off is given here.

How the values were obtained:
[1] = test system: U-87 MG; assay: Antiproliferative activity against human U87 cells assessed as inhibition of cell growth incubated for 24 hrs by CCK-8 assay; type: functional, cell-based, U-87MG ATCC
[2] = test system: MCF7; assay: Antiproliferative activity against human MCF7 cells assessed as inhibition of cell growth incubated for 24 hrs by CCK-8 assay; type: functional, cell-based; conditions: MCF7, 24 h
[3] = test system: HCT-116; assay: Antiproliferative activity against human HCT-116 cells assessed as inhibition of cell growth incubated for 24 hrs by CCK-8 assay; type: functional, cell-based; conditions: HCT-116, 24 h
[4] = test system: KYSE-150 cell line; assay: Antiproliferative activity against human KYSE-150 cell line assessed as inhibition of cell growth incubated for 24 hrs by CCK-8 assay; type: functional, cell-based; conditions: KYSE-150, 24 h
[5] = Kinetic solubility in PBS at pH 7.4 incubated under shaking condition for 24 hrs by LC-MS/MS analysis; type: physicochemical; conditions: read-out: Kinetic_solubility
[6] = Apparent permeability across apical to basolateral side in human Caco-2 cells at 2 uM incubated for 2 hrs by LC-MS/MS analysis; type: ADME, cell-based; conditions: Caco-2
[7] = Apparent permeability across basolateral to apical side in human Caco-2 cells at 2 uM incubated for 2 hrs by LC-MS/MS analysis; type: ADME, cell-based; conditions: Caco-2
[8] = Efflux ratio of apparent permeability from basolateral to apical side over apical to basolateral side in human Caco-2 cells at 2 uM incubated for 2 hr by LC-MS/MS analysis; type: ADME, cell-based; conditions: Caco-2
[9] = Metabolic stability in liver microsomes (unknown origin) assessed as half life incubated for 60 mins by LC-MS/MS analysis; type: ADME, Microsome
[10] = Metabolic stability in liver microsomes (unknown origin) assessed as compound remaining incubated for 60 mins by LC-MS/MS analysis; type: ADME, Microsome; conditions: read-out: Stability
[11] = test system: U-87 MG; assay: Induction of apoptosis in human U87 cells at 80 uM incubated for 24 hrs by Annexin V-FITC/PI staining based flow cytometry; type: functional, U-87MG ATCC
[12] = test system: U-87 MG; assay: Induction of apoptosis in human U87 cells assessed as increase in number of apoptotic cells at 80 uM incubated for 24 hrs by Annexin V-FITC/PI staining based flow cytometry; type: functional, cell-based; conditions: U-87MG ATCC
[13] = test system: U-87 MG; assay: Induction of apoptosis in human U87 cells assessed as increase in number of early apoptotic cells at 80 uM incubated for 24 hrs by Annexin V-FITC/PI staining based flow cytometry; type: functional, cell-based; conditions: U-87MG ATCC
[14] = test system: U-87 MG; assay: Induction of apoptosis in human U87 cells assessed as increase in number of late apoptotic cells at 80 uM incubated for 24 hrs by Annexin V-FITC/PI staining based flow cytometry; type: functional, cell-based; conditions: U-87MG ATCC
[15] = test system: U-87 MG; assay: Induction of apoptosis in human U87 cells assessed as increase in number of necrotic cells at 80 uM incubated for 24 hrs by Annexin V-FITC/PI staining based flow cytometry; type: functional, cell-based; conditions: U-87MG ATCC
[16] = test system: U-87 MG; assay: Induction of cell cycle arrest in human U87 cells assessed as decrease in number of cells at G1 phase at 80 uM incubated for 24 hrs by RNase/PI staining based flow cytometry; type: functional; conditions: U-87MG ATCC
[17] = test system: U-87 MG; assay: Induction of cell cycle arrest in human U87 cells assessed as decrease in number of cells at G2 phase at 80 uM incubated for 24 hrs by RNase/PI staining based flow cytometry; type: functional; conditions: U-87MG ATCC
[18] = test system: U-87 MG; assay: Induction of cell cycle arrest in human U87 cells assessed as increase in number of cells at S phase at 80 uM incubated for 24 hrs by RNase/PI staining based flow cytometry; type: functional; conditions: U-87MG ATCC
[19] = test system: U-87 MG; assay: Inhibition of cell migration in human U87 cells at 80 uM incubated for 48 hrs by scratch assay; type: functional, cell-based; conditions: U-87MG ATCC
[20] = test system: U-87 MG; assay: Inhibition of cell invasion in human U87 cells incubated for 48 hrs by crystal violet staining based microscopic analysis; type: functional; conditions: U-87MG ATCC
[21] = test system: HUVEC; assay: Antiangiogenesis activity in human HUVEC cells assessed as inhibition of vascular structure formation at 80 uM incubated for 12 hrs by inverted fluorescence microscopic analysis; type: functional, cell-based
[22] = test system: U-87 MG; assay: Antiangiogenesis activity in human U87 cells assessed as inhibition of neovascularization at 80 uM incubated for 12 hrs by inverted fluorescence microscopic analysis; type: functional, cell-based; conditions: U-87MG ATCC
[23] = test system: U-87 MG; assay: Antitumor activity in human U87 cells assessed as downregulation of […] expression at 80 uM incubated for 24 hrs by Western blotting analysis; type: functional, cell-based; conditions: U-87MG ATCC
[24] = test system: U-87 MG; assay: Antitumor activity in human U87 cells assessed as downregulation of CD133 expression at 80 uM incubated for 24 hrs by Western blotting analysis; type: functional, cell-based; conditions: U-87MG ATCC
[25] = test system: U-87 MG; assay: Antitumor activity in human U87 cells assessed as downregulation of ANGP-2 expression at 80 uM incubated for 24 hrs by Western blotting analysis; type: functional, cell-based; conditions: U-87MG ATCC
[26] = test system: U-87 MG; assay: Antitumor activity in human U87 cells assessed as downregulation of VEGFR2 expression at 80 uM incubated for 24 hrs by Western blotting analysis; type: functional, cell-based; conditions: U-87MG ATCC
[27] = test system: U-87 MG; assay: Antitumor activity in human U87 cells assessed as upregulation of cleaved caspase-3 expression at 80 uM incubated for 24 hrs by Western blotting analysis; type: functional, cell-based; conditions: U-87MG ATCC
[28] = test system: U-87 MG; assay: Antitumor activity against human U87 cells xenografted in Balb/c mouse assessed as reduction in tumor size at 10 mg/kg,ip administered every 3 days measured after 27 days; type: functional, organism-based; conditions: U-87MG ATCC, time 27.0 day
[29] = Toxicity in Balb/c mouse xenografted with human U87 cells assessed as body weight loss at 10 mg/kg,ip administered every 3 days measured after 27 days; type: organism-based; conditions: in vivo, 648 h, time 27 day
[30] = Toxicity in Balb/c mouse xenografted with human U87 cells assessed as histological change in heart at 10 mg/kg,ip administered every 3 days measured after 27 days by hematoxylin and eosin staining based assay; type: organism-based; conditions: in vivo, 648 h, time 27 day
[31] = Toxicity in Balb/c mouse xenografted with human U87 cells assessed as histological change in liver at 10 mg/kg,ip administered every 3 days measured after 27 days by hematoxylin and eosin staining based assay; type: organism-based; conditions: in vivo, 648 h, time 27 day
[32] = Toxicity in Balb/c mouse xenografted with human U87 cells assessed as histological change in spleen at 10 mg/kg,ip administered every 3 days measured after 27 days by hematoxylin and eosin staining based assay; type: organism-based; conditions: in vivo, 648 h, time 27 day
[33] = Toxicity in Balb/c mouse xenografted with human U87 cells assessed as histological change in lung at 10 mg/kg,ip administered every 3 days measured after 27 days by hematoxylin and eosin staining based assay; type: organism-based; conditions: in vivo, 648 h, time 27 day
[34] = Toxicity in Balb/c mouse xenografted with human U87 cells assessed as histological change in kidney at 10 mg/kg,ip administered every 3 days measured after 27 days by hematoxylin and eosin staining based assay; type: organism-based; conditions: in vivo, 648 h, time 27 day
[35] = Toxicity in Balb/c mouse xenografted with human U87 cells assessed as histological change in brain at 10 mg/kg,ip administered every 3 days measured after 27 days by hematoxylin and eosin staining based assay; type: organism-based; conditions: in vivo, 648 h, time 27 day
[36] = Toxicity in Balb/c mouse xenografted with human U87 cells assessed as histological change in heart at 10 mg/kg,ip administered every 3 days measured after 27 days by TUNEL staining based assay; type: organism-based; conditions: in vivo, 648 h, time 27 day
[37] = Toxicity in Balb/c mouse xenografted with human U87 cells assessed as histological change in liver at 10 mg/kg,ip administered every 3 days measured after 27 days by TUNEL staining based assay; type: organism-based; conditions: in vivo, 648 h, time 27 day
[38] = Toxicity in Balb/c mouse xenografted with human U87 cells assessed as histological change in spleen at 10 mg/kg,ip administered every 3 days measured after 27 days by TUNEL staining based assay; type: organism-based; conditions: in vivo, 648 h, time 27 day
[39] = Toxicity in Balb/c mouse xenografted with human U87 cells assessed as histological change in lung at 10 mg/kg,ip administered every 3 days measured after 27 days by TUNEL staining based assay; type: organism-based; conditions: in vivo, 648 h, time 27 day
[40] = Toxicity in Balb/c mouse xenografted with human U87 cells assessed as histological change in kidney at 10 mg/kg,ip administered every 3 days measured after 27 days by TUNEL staining based assay; type: organism-based; conditions: in vivo, 648 h, time 27 day
[41] = Toxicity in Balb/c mouse xenografted with human U87 cells assessed as histological change in brain at 10 mg/kg,ip administered every 3 days measured after 27 days by TUNEL staining based assay; type: organism-based; conditions: in vivo, 648 h, time 27 day
[42] = test system: U-87 MG; assay: Induction of cell cycle arrest in human U87 cells assessed as increase in number of cells at G1 phase at 80 uM incubated for 24 hrs by RNase/PI staining based flow cytometry; type: functional; conditions: U-87MG ATCC
[43] = test system: U-87 MG; assay: Induction of cell cycle arrest in human U87 cells assessed as increase in number of cells at G2 phase at 80 uM incubated for 24 hrs by RNase/PI staining based flow cytometry; type: functional; conditions: U-87MG ATCC
[44] = test system: U-87 MG; assay: Induction of cell cycle arrest in human U87 cells assessed as decrease in number of cells at S phase at 80 uM incubated for 24 hrs by RNase/PI staining based flow cytometry; type: functional; conditions: U-87MG ATCC

CC(C)[C@H]1CC[C@@H](C)C[C@@H]1N1C(=O)c2ccccc2C1=O
IC50 [1]: 65.3 µM
IC50 [2]: 1490 µM
IC50 [3]: 57.2 µM
IC50 [4]: 972 µM
solubility kinetic at 24 h [5]: 0.03 µM (≈ 8.56 ng/mL)
Papp A→B at 2 h, 2 µM [6]: 25.7 ×10⁻⁶ cm/s
Papp B→A at 2 h, 2 µM [7]: 13.3 ×10⁻⁶ cm/s
efflux ratio at 2 h, 2 µM [8]: 0.52
half-life [9]: > 2.42 h
remaining at 1 h [10]: 82.8%
Activity [11]: 90%
Activity [12]: Active; Significantly Increased Activity Observed
Activity [13]: Active
Activity [14]: Active
Activity [15]: Active
Activity [16]: inactive
Activity [17]: inactive
Activity [18]: inactive
inhibition [19]: Active
inhibition [20]: Active
Activity [21]: Active
Activity [22]: Active
Activity [23]: Active
Activity [24]: Active
Activity [25]: Active
Activity [26]: Active
Activity [27]: Active
Activity [28]: Active
Activity [29]: Non-toxic
Activity [30]: Non-toxic
Activity [31]: Non-toxic
Activity [32]: Non-toxic
Activity [33]: Non-toxic
Activity [34]: Non-toxic
Activity [35]: Non-toxic
Activity [36]: Non-toxic
Activity [37]: Non-toxic
Activity [38]: Non-toxic
Activity [39]: Non-toxic
Activity [40]: Non-toxic
Activity [41]: Non-toxic

CC(C)[C@H]1CC[C@H](C)C[C@H]1N1C(=O)c2ccccc2C1=O
IC50 [1]: 65.3 µM
IC50 [2]: 1490 µM
IC50 [3]: 57.2 µM
IC50 [4]: > 972 µM
solubility kinetic at 24 h [5]: 0.03 µM (≈ 8.56 ng/mL)
Papp A→B at 2 h, 2 µM [6]: 25.7 ×10⁻⁶ cm/s
Papp B→A at 2 h, 2 µM [7]: 12.6 ×10⁻⁶ cm/s
efflux ratio at 2 h, 2 µM [8]: 0.52
half-life [9]: > 2.42 h
remaining at 1 h [10]: 80.4%
Activity ([11]; U-87MG ATCC): Active
Activity [12]: Active; Significantly Increased Activity Observed
Activity [42]: Active
Activity [43]: Active
Activity [44]: Active
inhibition [19]: Active
